For 44 compounds, IC50 results are on record in BindingDB's records for doi:10.1007/s10822-022-00478-x (Roche Innovation Center Basel, F. Hoffmann-La Roche Ltd., 2022).

The target in this assay is cAMP and cAMP-inhibited cGMP 3',5'-cyclic phosphodiesterase 10A (Homo sapiens, UniProt Q9Y233). Nature of the assay: PDE10A assay. The gist of the method: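 Human PDE10A (2 ng/well) preincubated 15 min RT with compound in HEPES pH 7.5, 10 mM MgCl2, BSA, then reacted 15 min with 50 nM [3H]cGMP/cGMP substrate. Stopped with Y-Si SPA beads; bound radioactivity counted, IC50 from four-parameter logistic, pIC50 = −log10(IC50).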

In turn, `O=C(Nc1nc2cccnc2s1)c1nc(C2CC2)ccc1Nc1cncnc1` [Roche-Dataset for PDE10A, Compound 811] returned an IC50 of 0.02 µM.

`Cn1ncc(C(=O)N2CCC2)c1C(=O)Nc1ccn(-c2ccccc2F)n1` [Roche-Dataset for PDE10A, Compound 1043]: the IC50 was determined as 0.396 µM.

`CCn1ncc(NC(=O)c2c(C(=O)N3CCC3)cnn2C)c1C(=O)NCC(C)C` [Roche-Dataset for PDE10A, Compound 1057] gave a half-maximal inhibitory concentration (IC50) of 0.594 µM.

`O=C(Nc1ccccc1C(=O)C1CCCCC1)c1nc(C2CC2)cnc1Nc1cncnc1` [Roche-Dataset for PDE10A, Compound 667] returned a half-inhibitory concentration (IC50) of 0.013 µM.

On to `CC(=O)N(C)c1cccc(NC(=O)c2nc(C3CC3)cnc2Nc2cncnc2)c1` [Roche-Dataset for PDE10A, Compound 821], for which the IC50 worked out at 0.135 µM.

`CNC(=O)c1cc2[nH]c(-c3ccccc3)nc2cc1NC(=O)c1cc(C)n[nH]1` [Roche-Dataset for PDE10A, Compound 430]: the IC50 worked out at 0.355 µM.

`Cn1cc(-c2ccccc2)nc1COc1cc(N2CCOCC2)nc(-c2ccn[nH]2)n1` [Roche-Dataset for PDE10A, Compound 108] gave an IC50 of 0.371 µM.

`Cc1c(Br)cn2nc(/C=C/c3nc(N4CCCC4)nn3C)nc2c1C` [Roche-Dataset for PDE10A, Compound 406]: inhibition was half-maximal at 0.012 µM (IC50).

Take `CNC(=O)c1nn(C)cc1NC(=O)c1ccc2cc(-c3ccccc3)nn2c1` [Roche-Dataset for PDE10A, Compound 532]: inhibition was half-maximal at 0.195 µM (IC50).

As to `Cn1cc(-c2ccccc2)nc1COc1nc2ccccc2c(=O)[nH]1` [Roche-Dataset for PDE10A, Compound 366], the 50% inhibitory concentration (IC50) was found to be 0.09 µM.

In turn, `CCn1nc(CCc2nc3c(C)ncc(C)n3n2)nc1N1CCCC1` [Roche-Dataset for PDE10A, Compound 533] registered a half-inhibitory concentration (IC50) of 0.029 µM. Compared with the last compound, the IC50 is about 3.1-fold lower.

`Cc1noc(C(F)(F)F)c1C(=O)Nc1ccn2nc(-c3ccccc3)nc2c1` [Roche-Dataset for PDE10A, Compound 478] had an IC50 of 9.33 µM.

Turning to `O=C(Nc1ccnc(N2CCOCC2)c1)c1nc(C2CC2)cnc1Nc1cncnc1` [Roche-Dataset for PDE10A, Compound 815], the IC50 is 0.00856 µM. Compared with the last compound, the IC50 is about 1100-fold lower.

The compound `O=C(Nc1ccn(CCCC(F)(F)F)n1)c1nc(C2CC2)ccc1Nc1cncnc1` [Roche-Dataset for PDE10A, Compound 485] came in with an IC50 of 0.00666 µM.

In the case of `Cn1nc(N2CCCC2)nc1CCc1nc2cnc(C#N)cn2n1` [Roche-Dataset for PDE10A, Compound 500], the IC50 came to 4.17 µM. This IC50 lies about 630-fold higher than the previous one.

As for `CC(C)NC(=O)c1cccc(NC(=O)c2nc(C3CC3)cnc2Nc2cncnc2)n1` [Roche-Dataset for PDE10A, Compound 928], the half-maximal inhibitory concentration (IC50) was 0.0086 µM.

The compound `Cn1ncc(C(=O)N2CCC2)c1C(=O)Nc1n[nH]cc1C#N` [Roche-Dataset for PDE10A, Compound 1112] returned an IC50 of 0.325 µM.

Take `COC[C@H]1CCCN1c1nc(CCc2nc3c(C)ncc(C)n3n2)n(Cc2ccc(OC)cc2)n1` [Roche-Dataset for PDE10A, Compound 38]: the IC50 was 0.015 µM.

With `Cn1cc(-c2ccccc2)nc1COc1nc2ccccc2nc1C(F)(F)F` [Roche-Dataset for PDE10A, Compound 644], the IC50 is 0.026 µM.

The compound `CCOC(=O)Cn1nc(-c2ccccn2)cc1NC(=O)c1nc(C2CC2)ccc1Nc1cncnc1` [US8470820, 15] returned an IC50 of 0.00374 µM.

Compound `Cc1cc(NC(=O)c2c(C(=O)N3CCC3)cnn2C)cc(NC(=O)OC(C)(C)C)n1` [Roche-Dataset for PDE10A, Compound 1068] had an IC50 of 0.207 µM. Against the preceding compound, the IC50 is about 55-fold higher.

Consider `CC(C)(C)CCNC(=O)c1nc(C2CC2)cnc1Nc1cncnc1` [Roche-Dataset for PDE10A, Compound 1022], for which the half-maximal inhibitory concentration (IC50) worked out at 2.34 µM.

Regarding `CN(C)C(=O)c1nn(-c2ccccn2)cc1NC(=O)c1nc(C2CC2)ccc1Nc1cncnc1` [US8703768, 74], half-maximal inhibition (IC50) was put at 0.00678 µM.

`CN(CCNC(=O)c1nc(C2CC2)cnc1Nc1cncnc1)C(=O)c1ccccn1` [Roche-Dataset for PDE10A, Compound 581] came in with an IC50 of 10 µM.

Compound `CC(=O)N1CCC(NC(=O)c2nc(C3CC3)cnc2Nc2cncnc2)CC1` [Roche-Dataset for PDE10A, Compound 993] came in with an IC50 of 10 µM.

The compound `O=C(Nc1ccc2nccnc2c1)c1nc(C2CC2)ccc1Nc1cncnc1` [Roche-Dataset for PDE10A, Compound 945] yielded a half-inhibitory concentration (IC50) of 0.055 µM.

Compound `CNC(=O)c1cc(C(C)C)ccc1NC(=O)c1nc(C2CC2)cnc1Nc1cncnc1` [US8703768, 208] came in with an IC50 of 0.00115 µM.

In the case of `CN1CCN(c2cccc(NC(=O)c3nc(C4CC4)cnc3Nc3cncnc3)c2)CC1` [Roche-Dataset for PDE10A, Compound 741], the IC50 stood at 0.071 µM. This IC50 is about 62-fold higher than that of the compound before.

The compound `CN(C)C(=O)c1cnn(C)c1C(=O)Nc1ccn2cc(-c3cccc(OCCCF)c3)nc2n1` [Roche-Dataset for PDE10A, Compound 43] yielded an IC50 of 0.00717 µM. Against the preceding compound, the IC50 is about 9.9-fold lower.

As for `O=C(NCC1(c2ccccc2)CCCCC1)c1nc(C2CC2)cnc1Nc1cncnc1` [Roche-Dataset for PDE10A, Compound 804], the IC50 worked out at 0.728 µM.

For the compound `CNC(=O)c1nn(C)cc1NC(=O)c1nc(C2CC2)ccc1N(C)c1cncnc1` [Roche-Dataset for PDE10A, Compound 1122], 10 µM corresponded to half-maximal inhibition (IC50).

`Cn1ncc(NC(=O)c2nc(C3CC3)cnc2Nc2cncnc2)c1C(=O)N1CCCO1` [US8703768, 335] displayed an IC50 of 0.00075 µM.

In turn, `CC(C)n1nc(-c2ccccn2)cc1NC(=O)c1nc(C2CC2)ccc1Nc1cncnc1` [US8470820, 27] registered an IC50 of 0.00255 µM.

For `COCCn1ccc(NC(=O)c2c(C(=O)N3CCC3)cnn2C)n1` [Roche-Dataset for PDE10A, Compound 1067], the 50% inhibitory concentration (IC50) was 0.327 µM.

Consider `CNC(=O)c1cnn(C)c1C(=O)Nc1ccn2cc(-c3cccc(F)c3)nc2n1` [Roche-Dataset for PDE10A, Compound 656], for which the IC50 amounted to 0.062 µM.

`O=C(Nc1ccn2nc(-c3ccccc3)nc2c1)c1cnc(Cl)c(Cl)c1` [Roche-Dataset for PDE10A, Compound 518] yielded an IC50 of 1.03 µM. This IC50 lies about 17-fold higher than the previous one.

`O=C(Nc1cccc(OC(F)(F)F)c1)c1nc(C2CC2)cnc1Nc1cncnc1` [Roche-Dataset for PDE10A, Compound 874] came in with an IC50 of 0.031 µM. Compared with the last compound, the IC50 is about 33-fold lower.

With `COc1ccc2c(c1)c(=O)n(C)c1c(C)nc(-c3ccccc3Cl)n21` [Roche-Dataset for PDE10A, Compound 965], inhibition was half-maximal at 0.0077 µM (IC50).

Compound `COc1ccc(-c2nc3cc(NC(=O)c4c(C(=O)N5CCC5)cnn4C)ccn3n2)cc1` [Roche-Dataset for PDE10A, Compound 820] came in with a half-inhibitory concentration (IC50) of 0.0079 µM. The IC50 values of the last two compounds are within 1.5-fold of each other.

On to `O=C(NCc1cccc(F)c1)c1nc(C2CC2)cnc1Nc1cncnc1` [Roche-Dataset for PDE10A, Compound 837], for which half-maximal inhibition (IC50) required 0.499 µM.

On to `CCOc1ccccc1-c1cn2c(n1)C[C@H](NC(=O)c1c(C(=O)N3CCC3)cnn1C)CC2` [Roche-Dataset for PDE10A, Compound 251], for which half-maximal inhibition (IC50) was put at 0.0022 µM.

`Cc1ncc(C)n2nc(CCc3nc(N4CCCOCC4)nn3C)nc12` [Roche-Dataset for PDE10A, Compound 984] returned an IC50 of 1.27 µM. This IC50 lies about 580-fold higher than the previous one.

For the compound `COCc1cnn(C)c1C(=O)Nc1ccn2nc(-c3ccccc3)nc2c1` [Roche-Dataset for PDE10A, Compound 239], the IC50 is 0.014 µM.

For the compound `Cc1cc(NC(=O)c2c(C(=O)N3CCC3)cnn2C)n[nH]1` [Roche-Dataset for PDE10A, Compound 1149], the IC50 was 2.68 µM.

A word on the IC50: it is the concentration that gives 50% inhibition. A higher IC50 goes with weaker potency.
